Laboratory results published in patent US20050124618A1, “Methods of modulating angiogenesis and cancer cell proliferation” (priority 2003, published 2005).
Entries after “also recorded” stand apart in the source; their conditions may differ.

Key:
[1] = test system: primary human keratinocytes; experiment: Proliferation of primary human keratinocytes (comparison with U251); format: cell-based; settings: 10 μM HET0016, 48 hrs; DDMS concentration not given
Description: Mean values±SD from three separate experiments, each performed in triplicate, are presented. *** indicates p<0.001 from the respective control values.
Cell Proliferation Assays: Proliferation studies were performed with cultures plated at a density that ensured exponential growth for at least 5 days. Growth medium was generally replaced by serum-free medium 24 hr after plating. Cells were treated with various concentrations of a given compounds for 24 or 48 hr as described in the Methods. […] Organic solvent never exceeded 0.1% of total culture volume. Cells were harvested by exposure to 0.05% trypsin/EDTA and counted using a hemocytometer.

[2] = test system: phospho-tyrosine and phospho-Ser/Thr-Pro proteins; experiment: Western blot of tyrosine and serine/threonine protein phosphorylation in U251 cells; format: cell-based, human
Description: They were then pelleted by centrifugation at 1,000 g for 5 min at 4° C. Cells were lysed by adding RIPA buffer [20 mM HEPES (pH 7.4), 100 mM NaCl, 1% Nonidet P-40, 0.1% SDS, 1% deoxycholic acid, 10% glycerol, 1 mM EDTA, 1 mM NaVO3, 50 mM NaF, and Protease Inhibitors Set 1 (Calbiochem, La Jolla, Calif.)]. Plates were then scraped and cells collected in a 1.5-ml centrifuge tube, followed by incubation on ice for 30 min. Homogenates of the cell suspension were centrifuged for 10 min at 14,000 g and 4° C.; the pellets were discarded and protein concentrations in the supernatant determined by bicinchoninic acid (BCA) protein assay.
Typically, 20 μg of protein was separated on a 14% Tris-glycine gel (Invitrogen) and electroblotted on a PVDF membrane (Biotrace, Bothell, Wash.). Membranes were blocked for 1 h at room temperature with blocking buffer [0.2% I-Block reagent (Tropix, Bedford, Mass.), 0.1% Tween-20 in […]] before incubation with primary antibodies in blocking buffer (overnight at 4° C.). […] Both phospho-tyrosine (Y102) and phospho-serine/threonine-Pro MPM2 were detected using a 1:2000 dilution of the corresponding antibodies, whereas phospho-p44/p42MAPK and phospho-SAPK/JNK were detected using 1:1000 antibody dilutions. […]

p42/p44 MAPK = experiment: Western blot of phospho-p42/p44 MAPK in 9L cells; format: cell-based, rat; settings: 10 μM HET0016; 4 hr, 24 hr
Description: They were then pelleted by centrifugation at 1,000 g for 5 min at 4° C. The cells were lysed by adding RIPA buffer [20 mM HEPES (pH 7.4), 100 mM NaCl, 1% Nonidet P-40, 0.1% SDS, 1% deoxycholic acid, 10% glycerol, 1 mM EDTA, 1 mM NaVO3, 50 mM NaF, and protease inhibitors Set 1 (Calbiochem, La Jolla, Calif.)]. The plates were then scraped and the cells were collected in a 1.5-ml centrifuge tube, followed by incubation on ice for 30 min. The cell homogenates were centrifuged for 10 min at 14,000 g and 4° C.; the pellets were discarded and the protein concentrations in the supernatant determined by bicinchoninic acid (BCA) protein assay.
Typically, 20 μg of protein obtained from the cell homogenates was separated on a 14% Tris-glycine gel (Invitrogen) and transferred to a PVDF membrane (Biotrace, Bothell, Wash.). The membranes were blocked for 1 hr at room temperature with blocking buffer [0.2% I-Block reagent (Tropix, Bedford, Mass.), 0.1% Tween-20 in 1×PBS] and then incubated with the primary antibodies in blocking buffer overnight at 4° C. Phospho-p42/p44 MAPK (T202/Y204)(20G11), and phospho-SAPK/JNK (T183/Y185) (98F2) monoclonal antibodies were purchased from Upstate (Waltham, Mass.). […] Both phospho-p44/p42MAPK and phospho-SAPK/JNK were detected using 1:1000 antibody dilutions. […]

U251 human glioma cells = experiment: Flow cytometry of cell cycle distribution in U251 cells; format: cell-based; settings: 10 μM HET0016, 24 and 48 hr
Description: Flow Cytometry: Cells were cultured in 100-mm dishes at densities that ensured exponential growth at the time of harvest. The harvesting and processing protocols used to detect DNA by flow cytometry with propidium iodide (PI) have been described previously (Reiners et al., Carcinogenesis 20: 1561-1566, 1999). Cells were analyzed with a Becton Dickinson FACScan in the Wayne State University Flow Cytometry Core Facility, Detroit, Mich. Percentages of cells in the G0/G1, S, and G2/M stages of the cell cycle were determined with a DNA histogram-fitting program (MODFIT; Verity Software, Topsham, Me.). A minimum of 10^4 events/sample were collected.

Structure (SMILES): CCCCc1ccc(N=CNO)c(C)c1 [HET0016, N-hydroxy-N′-(4-butyl-2 methylphenyl) formamidine]
- effect on basal growth or proliferation of primary human keratinocytes [1]: Neither DDMS or HET0016 had any effect; also recorded: had no effect on the basal growth or proliferation; also recorded: had no effect on the proliferation
- serine/threonine phosphorylation of proteins ([2]; 10 μM HET0016): no significant changes
- tyrosine phosphorylation of proteins ([2]; 10 μM HET0016, 24 and 48 hr): inhibition which was seen at 24 and 48 hr; also recorded: significant decreases at 24 and 48 hr
- phosphorylation of p42/p44 MAPK (p42/p44 MAPK): decreases the phosphorylation; also recorded: significantly reduced the phosphorylation; also recorded: even greater after 24 hr
- effect on cell cycle distribution (U251 human glioma cells): arresting the cell cycle at G0/G1; also recorded: Cells containing G0/G1 DNA accumulated
